In US7329657B2, “Indazolyl-substituted pyrroline compounds as kinase inhibitors” (Ortho-McNeil Pharmaceutical, Inc., priority 2000, dated 2008):

Experiments:
Type in all cases: biochemical
PKC β-II = PKC β-II (Homo sapiens, UniProt P05771); assay: Protein Kinase C Histone-Based Assay, β-II isoform; conditions: histone III substrate, 30 μM ATP, 10 min at 30° C.; read-out: PKC Activity (IC50 μM, Histone Based Assay) Beta II
Method: (§1) Compounds were evaluated for PKC selectivity using histone III as the substrate. […] The reaction was incubated for 10 min at 30° C. Reactions were terminated by TCA precipitation and spotting on Whatman P81 filters. Filters were washed in 75 mM phosphoric acid and the radioactivity quantified by liquid scintillation counting.

PKC γ = PKC γ (Homo sapiens, UniProt P05129); assay: Protein Kinase C Histone-Based Assay, γ isoform; conditions: histone III substrate, 30 μM ATP, 10 min at 30° C.; read-out: PKC Activity (IC50 μM, Histone Based Assay) Gamma
Method: as §1

PKC α = PKC α (Homo sapiens, UniProt P17252); assay: Protein Kinase C Histone-Based Assay, α isoform; conditions: histone III substrate, 30 μM ATP, 10 min at 30° C.; read-out: PKC Activity (IC50 μM, Histone Based Assay) Alpha
Method: as §1

Chain of PKC β-II (P05771 1-673 isoform P05771-2): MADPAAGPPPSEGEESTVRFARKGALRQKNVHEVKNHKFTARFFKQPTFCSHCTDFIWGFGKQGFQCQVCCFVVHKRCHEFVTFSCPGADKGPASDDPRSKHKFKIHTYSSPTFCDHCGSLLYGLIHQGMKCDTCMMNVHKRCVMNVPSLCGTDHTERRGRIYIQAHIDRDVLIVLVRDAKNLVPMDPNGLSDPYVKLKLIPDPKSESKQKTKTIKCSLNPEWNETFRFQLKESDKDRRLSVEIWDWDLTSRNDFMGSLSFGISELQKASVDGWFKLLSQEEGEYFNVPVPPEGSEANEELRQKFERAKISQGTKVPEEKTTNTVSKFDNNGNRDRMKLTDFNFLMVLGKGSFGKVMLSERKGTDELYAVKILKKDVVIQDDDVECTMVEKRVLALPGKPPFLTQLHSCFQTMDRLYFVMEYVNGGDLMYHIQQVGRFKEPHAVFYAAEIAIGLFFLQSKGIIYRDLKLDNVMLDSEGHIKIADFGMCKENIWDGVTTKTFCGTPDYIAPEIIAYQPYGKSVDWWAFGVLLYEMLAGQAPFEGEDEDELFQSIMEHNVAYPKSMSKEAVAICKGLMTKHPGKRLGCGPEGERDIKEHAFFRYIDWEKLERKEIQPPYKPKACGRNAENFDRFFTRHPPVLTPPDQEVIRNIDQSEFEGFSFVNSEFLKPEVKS

| Structure (SMILES) | IC50 (PKC β-II) [µM] | IC50 (PKC γ) [µM] | IC50 (PKC α) [µM] |
| --- | --- | --- | --- |
| CN(C)CCn1nc2ccccc2c1C1=C(c2cn(-c3csc4ccccc34)c3ccccc23)C(=O)NC1=O [Compound 123, 3-(1-benzo[b]thien-3-yl-1H-indol-3-yl)-4-[2-[2-(dimethylamino)ethyl]-2H-indazol-3-yl]-1H-pyrrole-2,5-dione] | 0.026 | – | – |
| CN(C)CCCn1nc(C2=C(c3cn(-c4cnc5ccccc5c4)c4ccccc34)C(=O)NC2=O)c2ccccc21 [Compound 19, 3-[1-[3-(dimethylamino)propyl]-1H-indazol-3-yl]-4-[1-(3-quinolinyl)-1H-indol-3-yl]-1H-pyrrole-2,5-dione] | 0.004 | 0.047 | 0.011 |
| CN(C)CCCn1nc(C2=C(c3cn(-c4cccnc4)c4ccccc34)C(=O)NC2)c2ccccc21 [Compound 125, 4-[1-[3-(dimethylamino)propyl]-1H-indazol-3-yl]-1,5-dihydro-3-[1-(3-pyridinyl)-1H-indol-3-yl]-2H-pyrrol-2-one] | 0.005 | – | 0.339 |
| O=C1NC(=O)C(c2nn(CCCN3CCOCC3)c3ccccc23)=C1c1cn(-c2cnc3ccccc3c2)c2ccccc12 [Compound 22, 3-[1-[3-(4-morpholinyl)propyl]-1H-indazol-3-yl]-4-[1-(3-quinolinyl)-1H-indol-3-yl]-1H-pyrrole-2,5-dione] | 0.006 | 0.09 | 0.043 |
| CN(C)CCCn1nc(C2=C(c3cn(-c4csc5ccccc45)c4ccccc34)C(=O)NC2=O)c2ccccc21 [Compound 60, 3-(1-benzo[b]thien-3-yl-1H-indol-3-yl)-4-[1-[3-(dimethylamino)propyl]-1H-indazol-3-yl]-1H-pyrrole-2,5-dione] | 0.037 | 0.713 | 0.611 |
| O=C1NC(=O)C(c2nn(CCCO)c3ccccc23)=C1c1cn(-c2ccc3ccccc3c2)c2ccccc12 [Compound 84, 3-[1-(3-hydroxypropyl)-1H-indazol-3-yl]-4-[1-(2-naphthalenyl)-1H-indol-3-yl]-1H-pyrrole-2,5-dione] | 0.057 | 0.206 | 0.358 |
| CN(C)CCCn1nc(C2=C(c3cn(-c4cccc5ccccc45)c4ccccc34)C(=O)NC2=O)c2ccccc21 [Compound 15, 3-[1-[3-(dimethylamino)propyl]-1H-indazol-3-yl]-4-[1-(1-naphthalenyl)-1H-indol-3-yl]-1H-pyrrole-2,5-dione] | 0.029 | 3.35 | 1.23 |
| CN(C)CCn1nc(C2=C(c3cn(-c4ccc5ccccc5c4)c4ccccc34)C(=O)NC2=O)c2ccccc21 [Compound 101, 3-[1-[2-(dimethylamino)ethyl]-1H-indazol-3-yl]-4-[1-(2-naphthalenyl)-1H-indol-3-yl]-1H-pyrrole-2,5-dione] | 0.019 | 0.134 | 0.08 |
| CN(C)CCCn1nc(C2=C(c3cn(-c4ccc5cc(O)ccc5c4)c4ccccc34)C(=O)NC2=O)c2ccccc21 [Compound 64, 3-[1-[3-(dimethylamino)propyl]-1H-indazol-3-yl]-4-[1-(6-hydroxy-2-naphthalenyl)-1H-indol-3-yl]-1H-pyrrole-2,5-dione] | 0.013 | 0.215 | 0.101 |
| O=C1NC(=O)C(c2nn(CCCN3CCCC3)c3ccccc23)=C1c1cn(-c2ccc3ccccc3c2)c2ccccc12 [Compound 85, 3-[1-(2-naphthalenyl)-1H-indol-3-yl]-4-[1-[3-(1-pyrrolidinyl)propyl]-1H-indazol-3-yl]-1H-pyrrole-2,5-dione] | 0.044 | 0.511 | 0.477 |
| NCCCn1nc(C2=C(c3cn(-c4cccnc4)c4ccccc34)C(=O)NC2=O)c2ccccc21 [Compound 109, 3-[1-(3-aminopropyl)-1H-indazol-3-yl]-4-[1-(3-pyridinyl)-1H-indol-3-yl]-1H-pyrrole-2,5-dione] | 0.005 | 0.231 | 0.032 |
| CN(CCO)CCCn1nc(C2=C(c3cn(-c4ccc5ccccc5c4)c4ccccc34)C(=O)NC2=O)c2ccccc21 [Compound 88, 3-[1-[3-[(2-hydroxyethyl)methylamino]propyl]-1H-indazol-3-yl]-4-[1-(2-naphthalenyl)-1H-indol-3-yl]-1H-pyrrole-2,5-dione] | 0.038 | 0.232 | 0.422 |
| CN(C)CCCn1nc(C2=C(c3cn(-c4cccnc4)c4ccccc34)C(=O)NC2=O)c2ccccc21 [Compound 12, 3-[1-[3-(dimethylamino)propyl]-1H-indazol-3-yl]-4-[1-(3-pyridinyl)-1H-indol-3-yl]-H-pyrrole-2,5-dione] | 0.007 | 0.213 | 0.124 |
| CN(C)CCCn1nc(C2=C(c3cn(-c4cncnc4)c4ccccc34)C(=O)NC2=O)c2ccccc21 [Compound 34, 3-[1-[3-(dimethylamino)propyl]-1H-indazol-3-yl]-4-[1-(5-pyrimidinyl)-1H-indol-3-yl]-1H-pyrrole-2,5-dione] | 0.009 | 0.665 | 0.205 |
| CN(C)CCCn1nc(C2=C(c3cn(-c4cncc5ccccc45)c4ccccc34)C(=O)NC2=O)c2ccccc21 [Compound 16, 3-[1-[3-(dimethylamino)propyl]-1H-indazol-3-yl]-4-[1-(4-isoquinolinyl)-1H-indol-3-yl]-1H-pyrrole-2,5-dione] | 0.015 | 0.253 | 0.29 |
| CN(C)CCCn1nc(C2=C(c3cn(-c4cccnc4)c4ccc(Cl)cc34)C(=O)NC2=O)c2ccccc21 [Compound 13, 3-[5-chloro-1-(3-pyridinyl)-1H-indol-3-yl]-4-[1-[3-(dimethylamino)propyl]-1H-indazol-3-yl]-1H-pyrrole-2,5-dione] | 0.004 | 0.045 | 0.011 |
| CN(C)CCCn1nc(C2=C(c3cn(-c4ccccn4)c4ccccc34)C(=O)NC2=O)c2ccccc21 [Compound 31, 3-[1-[3-(dimethylamino)propyl]-1H-indazol-3-yl]-4-[1-(2-pyridinyl)-1H-indol-3-yl]-1H-pyrrole-2,5-dione] | 0.015 | 0.091 | 0.106 |
| CN(C)CCCn1nc(C2=C(c3cn(-c4ccc5ccccc5c4)c4ccccc34)C(=O)NC2=O)c2ccccc21 [Compound 14, 3-[1-[3-(dimethylamino)propyl]-1H-indazol-3-yl]-4-[1-(2-naphthalenyl)-1H-indol-3-yl]-1H-pyrrole-2,5-dione] | 0.005 | 0.115 | 0.057 |
| O=C1NC(=O)C(c2nn(CCCN3CCOCC3)c3ccccc23)=C1c1cn(-c2ccc3ccccc3c2)c2ccccc12 [Compound 70, 3-[1-[3-(4-morpholinyl)propyl]-1H-indazol-3-yl]-4-[1-(2-naphthalenyl)-1H-indol-3-yl]-1H-pyrrole-2,5-dione] | 0.018 | 0.342 | 0.259 |
| CN(C)CCCn1nc(C2=C(c3cn(-c4ccccc4)c4ccccc34)C(=O)NC2=O)c2ccccc21 [Compound 45, 3-[1-[3-(dimethylamino)propyl]-1H-indazol-3-yl]-4-(1-phenyl-1H-indol-3-yl)-1H-pyrrole-2,5-dione] | 0.01 | 0.168 | 0.071 |
| CN(C)CCCn1nc(C2=C(c3cn(-c4cccs4)c4ccccc34)C(=O)NC2=O)c2ccccc21 [Compound 9, 3-[1-[3-(dimethylamino)propyl]-1H-indazol-3-yl]-4-[1-(2-thienyl)-1H-indol-3-yl]-1H-pyrrole-2,5-dione] | 0.008 | 0.262 | 0.141 |
| O=CCCn1nc(C2=C(c3cn(-c4cnc5ccccc5c4)c4ccccc34)C(=O)NC2=O)c2ccccc21 [Compound 23, 3-[2,5-dihydro-2,5-dioxo-4-[1-(3-quinolinyl)-1H-indol-3-yl]-1H-pyrrol-3-yl]-1H-indazole-1-propionaldehyde] | 0.054 | 0.188 | 0.546 |
| CN(C)CCn1nc(C2=C(c3cn(-c4csc5ccccc45)c4ccccc34)C(=O)NC2=O)c2ccccc21 [Compound 103, 3-(1-benzo[b]thien-3-yl-1H-indol-3-yl)-4-[1-[2-(dimethylamino)ethyl]-1H-indazol-3-yl]-1H-pyrrole-2,5-dione] | 0.02 | 0.161 | 0.189 |
| CN(C)CCCn1nc(C2=C(c3cn(Cc4ccc5ccccc5n4)c4ccccc34)C(=O)NC2=O)c2ccccc21 [Compound 67, 3-[1-[3-(dimethylamino)propyl]-1H-indazol-3-yl]-4-[1-(2-quinolinylmethyl)-1H-indol-3-yl]-1H-pyrrole-2,5-dione] | 0.016 | 0.65 | 1.48 |
| O=C1NC(=O)C(c2nn(CCC3OCCO3)c3ccccc23)=C1c1cn(-c2cnc3ccccc3c2)c2ccccc12 [Compound 24, 3-[1-[2-(1,3-dioxolan-2-yl)ethyl]-1H-indazol-3-yl]-4-[1-(3-quinolinyl)-1H-indol-3-yl]-1H-pyrrole-2,5-dione] | 0.029 | 1.29 | 0.2 |
